Test results: US12508260B2, “Combination treatments” (Celex Oncology Innovations Limited, priority 2019, dated 2025)
Where two headings read alike, the source gives them in different places.

Key:
MDA-MB-231 cells [1] = assay: Matrigel invasion assay, MDA-MB-231 cells; format: cell-based, human
VGSC = molecular target: T1, VGSC (Homo sapiens, UniProt Q14524, S234P/V215L); assay: Whole-cell patch clamp of VGSC current in MDA-MB-231 cells; format: cell-based
T1 construct: minoxidil on the VGSC activity in MDA-MB-231 cells; endogenous in cells; host or cells: MDA-MB-231 (human breast cancer cell line)
Method: Whole-cell patch clamp recordings are performed on cells under superfusion with mammalian physiological saline (MPS). Details of whole-cell recordings have been described previously (Fraser et al., 2003, 2005; Grimes et al., 1995; Laniado et al., 1997). In brief, MPS contains (in mM): 144 NaCl, 5.4 KCl, 1 MgCl2, 2.5 CaCl2), 5 HEPES and 5.6 D-glucose (adjusted to pH 7.3 with NaOH). Patch pipettes (tip resistances, ˜5 MΩ) are filled with a solution designed to block the outward K^+ currents (in mM): NaCl 5, CsCl 145, MgCl2 2, CaCl2) 1, HEPES 10 and EGTA 11, adjusted to pH 7.4 with 1 M CsOH. The estimated intracellular free Ca^2+ concentration is ˜15 nM (Laniado et al., 2001). A holding potential of −100 mV is applied. Standard voltage-clamp protocols are used to study the electrophysiological properties of the VGSC currents. Mainly the following characteristics are studied: peak current (and its density), current-voltage relationship (current normalized to peak), steady-state inactivation/“availability”=test current (I)/maximum current (Imax); recovery from inactivation=test current (It)/control current (Ic). For accurate determination of the acute effect of minoxidil on peak current block, only currents larger than 200 pA are used. Further details of the voltage-clamp protocols, data analysis and curve fitting have been published earlier (Onkal et al., 2008).

MDA-MB-231 cells [2] = assay: Cell viability, trypan blue dye exclusion, MDA-MB-231; format: cell-based, human; details: normoxia or hypoxia, 48 h
Method: (§1) Cell viability was determined with the use of trypan blue dye exclusion assay. The assay was undertaken both in normoxic and hypoxic conditions. Upon completion of the treatment period, the media was aspirated and replaced with 0.2 mL of 0.4% trypan blue (Sigma-Aldrich) and 0.8 mL of DMEM media. The dish was mixed and incubated for 10 min in the humidified chamber. The trypan blue solution was replaced with 1 mL of DMEM and the dishes were observed under an inverted microscope (ID 03, Zeiss) at 100× magnification under phase contrast. The MTT assay was used to assess cell metabolic activity by determining the level of NAD (P) H-dependent cellular oxidoreductase enzymes. Cells were seeded in 24 well plates (Becton Dickinson, Oxford, UK) at 2×10^4 cells/well and were allowed to settle overnight before treatment. During the treatment, 500 μL of solution was added to each well and the assays were undertaken in both normoxic and hypoxic conditions. Upon treatment completion, 400 μL of DMEM and 100 μL of MTT was added into each well. […] The plates were rocked at 150 cycles/min for 5 min to mix the formazan with DMSO and the resulting formazan absorbance was measured at 570 nm with a multi-plate reader (ELX800 Universal Microplate Reader, Bio-Tek Instruments, UK). Two measurements for each result were recorded with a 5 min interval and the average was calculated.

nNav1.5 protein = assay: Immunocytochemistry of nNav1.5 protein expression in MDA-MB-231 cells; format: cell-based, human; details: hypoxia
Method: Cells were first seeded in 35×10 mm dishes (Becton Dickinson) at 5×10^5 cell/dish and left to settle overnight. The cells were pre-treated with treatment solutions for 32 h. The assay was only performed under hypoxia conditions. Before seeding the cells, 13 mm coverslips were placed in 24 well plates and 500 μL poly-L-lysine (Sigma) was added to each well for 20 min. After the period of pre-treatments, cells were trypsinized and seeded at 2×10^4 cells/coverslip in 500 μL of their respective treatment solutions. The plates were incubated under hypoxic condition and the assay was allowed for 16 h. At least two coverslips were prepared for each experiment. Upon assay completion, the coverslips were washed with phosphate buffered saline (PBS) before being fixed with 500 μL of 4% paraformaldehyde (Sigma) diluted in PBS. Fixation was for 10 min at room temperature on an orbital shaker. Coverslips were then washed 3×5 min in PBS. One of the coverslips for each condition was permeabilised with 500 μL 0.1% saponin/PBS solution (Sigma) for 4 min and 3×5 min of PBS washes followed. Permeabilised and non-permeabilised coverslips were all were treated with 500 μL 5% bovine serum albumin (BSA)/PBS (pH 7.4, v/v; Dako, Cambridge, UK) blocking agent for 1 h. Coverslips were transferred from the 24 well plate to a humidity chamber and were incubated with 100 μL of the primary antibody (NESOpAb) at a 1:200 dilution of the 0.7 mg/mL stock on an orbital shaker overnight at 3-5° C. The primary antibody used was NESOpAb which can specifically recognize and bind an external epitope sequence of the neonatal isoform of Nav1.5 […] et al., 2005). Coverslips were then rinsed with 3×5 min PBS and incubated with 100 μL of the secondary antibody, goat anti-rabbit IgG Alexa Fluor® 568, at a 1:100 concentration (Dako) for 1 h in darkness at room temperature. Coverslips for negative controls (which were incubated with secondary antibody only) were also prepared to check the specificity of the primary antibody. Coverslips were then rinsed with 3×5 min PBS+0.1% BSA and dipped in distilled water before being mounted on glass slides using mounting medium (Dako) and stored in darkness at 3-5° C. Images were taken with a Canon® digital camera inserted into an Axioimager immunofluorescence and phase contrast inverted microscope (Zeiss) and processed with Remote Capture Software® (Canon). ImageJ was used to analyse and quantify the corrected total cell florescence.

MDA-MB-468 cells [3] = assay: Matrigel invasion assay, MDA-MB-468 cells; format: cell-based, human; details: hypoxia, FIG. 8
MDA-MB-468 cells [4] = assay: Cell viability, trypan blue dye exclusion, MDA-MB-468; format: cell-based, human; details: normoxia or hypoxia, 48 h
Method: as §1

[5] = 50 μM minoxidil, short-term (acute) application, FIG. 11

COc1ccccc1OCC(O)CN1CCN(CC(=O)Nc2c(C)cccc2C)CC1 (stereo not shown) [ranolazine, N-(2,6-Dimethylphenyl)-4-[2-hydroxy-3-(2-methoxyphenoxy)propyl]-1-piperazineacetamide]
reduction of cell invasion (MDA-MB-231 cells [1]; 0.625 μM ranolazine, hypoxia, FIG. 6c): 24% | reduction of cell invasion (MDA-MB-231 cells [1]; 1.25 μM ranolazine, hypoxia, FIG. 6b): 32% | reduction of cell invasion (MDA-MB-231 cells [1]; 2.5 μM ranolazine, hypoxia, FIG. 6a): 36% | reduction of cell invasion (MDA-MB-231 cells [1]; 2.5 μM ranolazine, hypoxia, FIG. 7a): 30% | effect on cell invasion (MDA-MB-231 cells [1]; 2.5 μM ranolazine, normoxia, FIG. 7b): no effect | reduction of cell invasion (MDA-MB-231 cells [1]; 5 μM ranolazine, hypoxia, FIG. 5a): 42% | reduction of cell invasion (MDA-MB-231 cells [1]; 5 μM ranolazine, hypoxia, set with 2.5 μM minoxidil (FIG. 4b/5b)): 43% | effect on the transient ('peak') component of VGSC current (VGSC; ranolazine at the concentrations used in the Examples (<<10 µM), FIG. 2): hardly any effect | effect on cell viability (MDA-MB-231 cells [2]; 5 μM ranolazine): no effect | reduction of nNav1.5 protein expression (nNav1.5 protein; 5 μM ranolazine, non-permeabilized cells (plasma membrane), FIG. 9a): 30% | reduction of nNav1.5 protein expression (nNav1.5 protein; 5 μM ranolazine, permeabilized cells (total), FIG. 9b): 43% | reduction of cell invasion (MDA-MB-468 cells [3]; 2.5 μM ranolazine): 33% | effect on cell viability (MDA-MB-468 cells [4]; 5 μM ranolazine): no effect

Nc1cc(N2CCCCC2)nc(N)[n+]1[O-] [minoxidil, 6-(1-Piperidinyl)pyrimidine-2,4-diamine 3-oxide]
reduction of cell invasion (MDA-MB-231 cells [1]; 2.5 μM minoxidil, hypoxia, FIG. 6a): 24% | reduction of cell invasion (MDA-MB-231 cells [1]; 2.5 μM minoxidil, hypoxia, FIG. 6b): 41% | reduction of cell invasion (MDA-MB-231 cells [1]; 2.5 μM minoxidil, hypoxia, FIG. 6c): 42% | reduction of cell invasion (MDA-MB-231 cells [1]; 2.5 μM minoxidil, hypoxia, FIG. 7a): 49% | reduction of cell invasion (MDA-MB-231 cells [1]; 2.5 μM minoxidil, hypoxia, set with 5 μM ranolazine (FIG. 4b/5b)): 48% | reduction of cell invasion (MDA-MB-231 cells [1]; 2.5 μM minoxidil, normoxia, FIG. 7b): 53% | reduction of cell invasion (MDA-MB-231 cells [1]; 5 μM minoxidil, hypoxia, FIG. 5a): 56% | reduction of cell invasion (MDA-MB-231 cells [1]; 50 μM minoxidil, hypoxia, FIG. 5a): 89% | effect on VGSC characteristics (VGSC; 50 μM minoxidil, long-term (48 hour) treatment under hypoxia, then washing off, FIG. 12): no change | effect on peak current (VGSC; [5]): no effect | effect on steady-state inactivation (VGSC; [5]): shifted the steady-state inactivation to more hyperpolarised potentials | effect on cell viability (MDA-MB-231 cells [2]; 50 μM minoxidil): no effect | effect on nNav1.5 protein expression (nNav1.5 protein; 50 μM minoxidil, non-permeabilized cells, FIG. 9a, P=0.58): neither minoxidil nor the drug combination had a significant effect | reduction of nNav1.5 protein expression (nNav1.5 protein; 50 μM minoxidil, permeabilized cells (total), FIG. 9b): 49% | reduction of cell invasion (MDA-MB-468 cells [3]; 2.5 μM minoxidil): 44% | effect on cell viability (MDA-MB-468 cells [4]; 50 μM minoxidil): no effect

COc1cc2ncnc(Nc3cccc(Cl)c3)c2cc1OC [AG1478, N-(3-chlorophenyl)-6,7-dimethoxy-4-quinazolinamine]
effect on invasiveness (normalized to control) (MDA-MB-231 cells [1]; 10 μM AG1478, normoxia, FIG. 10): significant inhibitory effect

NC1=N[C@H](O)[C@H]2[C@H]3O[C@]4(O)O[C@@H]([C@@H](O)[C@@]2(N1)[C@@H]4O)[C@]3(O)CO [TTX, Tetrodotoxin]
effect on invasiveness (normalized to control) (MDA-MB-231 cells [1]): slight effect but this is not significant
